Article PMC12349723, “Computationally accelerated identification of P-glycoprotein inhibitors” (PLOS One, 2025)
Where two headings read alike, the source gives them in different places.

Tested on: DU145-TXR cells
Assay: MTT viability assay, reversal of MDR (re-sensitization to paclitaxel) in P-gp overexpressing DU145-TXR cells
Assay type: cell-based, human
Conditions: DU145-TXR; for viability at 15 µM: Homo sapiens
Summary of the method: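 MTT viability testing was done on P-gp overexpressing, multidrug resistant DU145-TXR human prostate cancer cells. They were kept in 10 nM paclitaxel and seeded at 3,000 cells per well in complete RPMI. Cells were exposed to compound, with or without paclitaxel, for 48 hours. MTT was then added for 4 hours, formazan was dissolved in DMSO, and absorbance was read at 570 nm. Survival was expressed relative to control-treated cells.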

[1] = 15 µM compound + 500 nM PTX (Paclitaxel, Taxol), mean of 8 samples
[2] = 15 µM compound + 500 nM PTX (Paclitaxel, Taxol), trial 1, sample 1
[3] = 15 µM compound + 500 nM PTX (Paclitaxel, Taxol), trial 1, sample 2
[4] = 15 µM compound + 500 nM PTX (Paclitaxel, Taxol), trial 1, sample 3
[5] = 15 µM compound + 500 nM PTX (Paclitaxel, Taxol), trial 1, sample 4
[6] = 15 µM compound + 500 nM PTX (Paclitaxel, Taxol), trial 2, sample 1
[7] = 15 µM compound + 500 nM PTX (Paclitaxel, Taxol), trial 2, sample 2
[8] = 15 µM compound + 500 nM PTX (Paclitaxel, Taxol), trial 2, sample 3
[9] = 15 µM compound + 500 nM PTX (Paclitaxel, Taxol), trial 2, sample 4

Structure (SMILES) | % Survival, mean [1] [%] | % Survival [2] [%] | % Survival [3] [%] | % Survival [4] [%] | % Survival [5] [%] | % Survival [6] [%] | % Survival [7] [%] | % Survival [8] [%] | % Survival [9] [%] | also measured
COc1ccc2c3c([nH]c2c1)[C@H](CC(C)C)N1C(=O)[C@H](CCC(=O)OC(C)(C)C)NC(=O)[C@@H]1C3 [Ko143, reference compound] | 72.4 | 75 | 82 | 91 | 77 | 65 | 67 | 58 | 64 | % Survival, mean (15 µM Compound Alone, mean of 8 samples): 89.2%; % Survival (15 µM Compound Alone, trial 1, sample 1): 101%; % Survival (15 µM Compound Alone, trial 1, sample 2): 113%; % Survival (15 µM Compound Alone, trial 1, sample 3): 88%; % Survival (15 µM Compound Alone, trial 1, sample 4): 91%; % Survival (15 µM Compound Alone, trial 2, sample 1): 92%; % Survival (15 µM Compound Alone, trial 2, sample 2): 74%; % Survival (15 µM Compound Alone, trial 2, sample 3): 75%; % Survival (15 µM Compound Alone, trial 2, sample 4): 80%
COc1cc2c(cc1OC)CN(CCc1ccc(NC(=O)c3cc(OC)c(OC)cc3NC(=O)c3cnc4ccccc4c3)cc1)CC2 [Tariquidar, reference compound] | 13.1 | 11 | 10 | 21 | 13 | 20 | 13 | 9 | 7.57 | viability at 15 µM (15 µM Compound Alone, mean of 8 samples, read-out: % Survival, mean): 101%; viability at 15 µM (15 µM Compound Alone, trial 1, sample 1, read-out: % Survival): 139%; viability at 15 µM (15 µM Compound Alone, trial 1, sample 2, read-out: % Survival): 94%; viability at 15 µM (15 µM Compound Alone, trial 1, sample 3, read-out: % Survival): 96%; viability at 15 µM (15 µM Compound Alone, trial 1, sample 4, read-out: % Survival): 95%; viability at 15 µM (15 µM Compound Alone, trial 2, sample 1, read-out: % Survival): 80%; viability at 15 µM (15 µM Compound Alone, trial 2, sample 2, read-out: % Survival): 106%; viability at 15 µM (15 µM Compound Alone, trial 2, sample 3, read-out: % Survival): 79%; viability at 15 µM (15 µM Compound Alone, trial 2, sample 4, read-out: % Survival): 123%
